The target of this experiment is T1, C-X-C chemokine receptor type 1 (Homo sapiens, UniProt P25024).
T1 sequence (P25024 whole entry): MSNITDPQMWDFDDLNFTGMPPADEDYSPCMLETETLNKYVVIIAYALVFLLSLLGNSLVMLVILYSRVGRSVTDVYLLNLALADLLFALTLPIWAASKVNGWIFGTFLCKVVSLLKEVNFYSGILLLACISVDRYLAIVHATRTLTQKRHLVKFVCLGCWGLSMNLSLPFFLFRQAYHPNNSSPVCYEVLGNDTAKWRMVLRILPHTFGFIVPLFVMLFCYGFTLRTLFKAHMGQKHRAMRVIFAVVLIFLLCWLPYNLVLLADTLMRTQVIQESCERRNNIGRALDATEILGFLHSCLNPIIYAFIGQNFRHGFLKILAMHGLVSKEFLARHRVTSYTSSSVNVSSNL
Briefly: Displacement of [125I]IL8 from human recombinant IL8 type A receptor.

IC50 data for 3 compounds are collected here from ChEMBL document CHEMBL1142615, “Polyoxygenated dysidea sterols that inhibit the binding of [I125] IL-8 to the human recombinant IL-8 receptor type A” (J Nat Prod, 2000).

For `CC(=O)O[C@H]1C=C2[C@@H]3CC[C@H]([C@H](C)CCCC(C)C)[C@@]3(C)C[C@H]3O[C@@]23[C@@]2(C)CC[C@H](O)C[C@]12O`, the 50% inhibitory concentration (IC50) is 4.5 µM.
For `CC(=O)O[C@H]1CC[C@]2(C)C3=C([C@H](OC(C)=O)[C@H](OC(C)=O)[C@@]2(O)C1)[C@@H]1CC[C@H]([C@H](C)CCCC(C)C)[C@@]1(C)C[C@H]3O` the value was 5.5 µM.
For the compound `CC(=O)O[C@H]1C2=C([C@H](O)C[C@]3(C)[C@@H]([C@H](C)CCCC(C)C)CC[C@@H]23)[C@@]2(C)CC[C@H](O)C[C@]2(O)[C@H]1OC(C)=O`, the IC50 was determined as 20 µM.
